# Laboratory results as given in patent publication US20070078177A1, “METHODS AND COMPOSITIONS FOR TREATING NON AGE RELATED HEARING IMPAIRMENT IN A SUBJECT” (WASHINGTON UNIVERSITY IN ST. LOUIS, priority 2005, published 2007).
# “Also recorded” adds a separate entry of the source.
# Tests used:
# [1] = system: outer hair cells (OHCs), inner hair cells (IHCs), and spiral ganglion neurons (SGNs); experiment: Cochlear histology after noise exposure: counting of IHCs, OHCs and SGNs, cytocochleograms; format: in vivo, C57BL/6J mice; settings: for number (density) of SGNs, control vs drug-treated mice: apex, middle and base regions, male mice at 3 months, drug after noise, FIG. 6B (trimethadione), FIG. 7 (ethosuximide); for gross morphological changes in mid-modiolar sections, control vs drug-treated mice: drug after noise exposure
# Text: The methods for fixing, processing and analyzing the mouse cochlea have been described in detail elsewhere (Ohlemiller et al., 2000; Ou et al., 2000). Briefly, mice were perfused transcardially with cold 2% paraformaldehyde and 2% glutaraldehyde in 0.1 M phosphate buffer. Both cochleae were isolated, the stapes removed, and immersed in the same fixative. Complete exposure of the cochlea to the fixative was ensured by making a small hole at the apex of the cochlear capsule, gently circulating the fixative over the cochlea using a transfer pipet. After decalcification in sodium EDTA, the cochleae were post-fixed in buffered 1% osmium tetroxide, dehydrated in an ascending acetone series, and embedded in Epon. For SGN counting, mid-modiolar sections (4 μm) were cut and about fifty sections were collected for each cochlea. The number of SGN nuclei at the apex, middle, and base was counted every fifth section (total 10 sections per one cochlea) under a 200× visual field using a computerized planimetry program of Image Pro Plus (Media Cybernetics). Because all sections were cut in a similar orientation, it was possible to evaluate comparisons between two groups by Mann-Whitney tests. For hair cell counting, cochleae were dissected into roughly half-turn segments. These half-turn segments were examined in mineral oil under Nomarski optics, using a calibrated ocular. Three separate inner hair cell (IHC) and outer hair cell (OHC) counts were obtained from non-overlapping 100 μm segments. Cytocochleogrames were prepared for one pair of mice with the best prophylactic function of trimethadione. The percentages of missing IHCs and OHCs were determined by dividing the number of missing hair cells by the total number of hair cells (i.e. present plus absent) in the organ of Corti.
# [2] = system: noise-induced hearing loss (NIHL); experiment: Therapeutic function on noise-induced hearing loss: ABR thresholds, drug in drinking water right after noise exposure
# [3] = system: noise-induced hearing loss (NIHL); experiment: Prophylactic function on noise-induced hearing loss: ABR thresholds, drug in drinking water before noise exposure; settings: for ABR threshold shift prevented, PTS: Drug-Noise-2w; for ABR threshold shift prevented, PTS / ABR threshold shift prevented, TTS: P<0.01; for ABR threshold shift prevented, TTS: Drug-Noise-24h
# [4] = stated as reason for selecting TMO; cited from earlier work
# [5] = both male and female mice, 3 months old, drug in drinking water two weeks before noise, one-way ANOVA p<0.05, FIG. 5
# [6] = female mice, across five tested frequencies, FIG. 5B
# [7] = male mice, five tested frequencies from 5 to 40K, FIG. 5A
smiles,measurement,setting,value
CCC1(C)CC(=O)NC1=O (stereo not drawn) [ethosuximide],"number (density) of SGNs, control vs drug-treated mice",[1],no difference; also recorded: not significantly different
same,"gross morphological changes in mid-modiolar sections, control vs drug-treated mice",[1],No obvious gross morphological changes
same,temporary threshold shift (TTS) vs control,"[2]; 24 hours after noise (wideband, 110 dB, 30 min), ethosuximide 400 mg/kg/day in drinking water starting immediately after noise, FIG. 2B",significantly lower
same,permanent threshold shift (PTS) vs control,"[2]; 21 days after noise, ethosuximide 400 mg/kg/day in drinking water for three weeks starting immediately after noise, FIG. 2C",significantly lower
same,ABR threshold before the noise exposure vs control,"[2]; ethosuximide group vs control, n=5, 2 month-old mice, FIG. 2A",no difference
same,"ABR threshold shift, PTS, vs control","[2]; male mice (n=5), 3 months old, ethosuximide in drinking water right after noise, P<0.01, FIG. 4",less ABR threshold shift; also recorded: significant protection
same,"ABR threshold shift, TTS, vs control","[2]; male mice (n=5), 3 months old, ethosuximide in drinking water right after noise, P<0.05, FIG. 4",less ABR threshold shift; also recorded: significant protection
CN1C(=O)OC(C)(C)C1=O [trimethadione],loss of IHCs,"[1]; apex region (0 to 8 kHz), single treated mouse of the pair, control 0.3%",~1.9%
same,loss of OHCs,"[1]; apex region (0 to 8 kHz), single treated mouse of the pair, control 4.6%",~3.5%
same,"number (density) of SGNs, control vs drug-treated mice",[1],no difference; also recorded: not significantly different
same,missing IHCs,"[1]; base region (32 kHz to 64 kHz), single treated mouse of the pair, control 22.2%, FIG. 8",about 1.8%
same,missing OHCs,"[1]; base region (32 kHz to 64 kHz), single treated mouse of the pair, control 74.4%, FIG. 8",~68.8%
same,"gross morphological changes in mid-modiolar sections, control vs drug-treated mice",[1],No obvious gross morphological changes
same,morphological differences among groups,[1]; groups testing the prophylactic function,no obvious morphological differences
same,"IHC numbers, control vs drug-treated mice","[1]; hook, low base, upper base and apex of cochlea, 3-months-old male mice (n=3), FIG. 6A",no significant difference
same,"OHC numbers, control vs drug-treated mice","[1]; hook, low base, upper base and apex of cochlea, 3-months-old male mice (n=3), Noise-Only-2w vs Noise-Drug-2w, FIG. 6A",trend for the loss of more outer hair cells; also recorded: no significant difference
same,temporary threshold shift (TTS) vs control,"[3]; 24 hours after noise (wideband, 110 dB, 30 min), TMO 200 mg/kg/day in drinking water three weeks before noise, all seven frequencies, FIG. 1B",significantly lower
same,permanent threshold shift (PTS) vs control,"[3]; 14 days after noise (wideband, 110 dB, 30 min), TMO 200 mg/kg/day in drinking water three weeks before noise, all seven frequencies, FIG. 1C, listed as TMO",significantly lower
same,ABR threshold before the noise exposure vs control,"[3]; TMO 200 mg/kg body weight/day in drinking water, one week after TMO treatment, n=5, 8 month-old mice, FIG. 1A",no difference
same,ABR threshold shift at the apex region,"[3]; apex region (0 to 8 kHz), single treated mouse of the pair, control about 25 dB",no shift
same,"protection from NIHL, PTS",[3]; [5],significant protection
same,"protection from NIHL, TTS",[3]; [5],significant protection
same,ABR threshold shift after the noise exposure,"[3]; both male and female mice, prophylactic treatment",dramatically reduced
same,"ABR threshold shift prevented, PTS",[3]; [6],~7.0 dB
same,"ABR threshold shift prevented, TTS",[3]; [6],about 5.0 dB
same,"ABR threshold shift prevented, PTS",[3]; [7],~9.7 dB
same,"ABR threshold shift prevented, TTS",[3]; [7],about 4.3 dB
same,permanent ABR threshold shift among five frequencies tested,"[3]; single treated mouse (male, 3 months) of a selected pair, drug two weeks before noise, control mouse about 35 dB, FIG. 8",11 dB
same,ABR threshold at 40 kHz before the noise exposure,"[3]; single treated mouse of the pair, same value in the control mouse",28 dB
same,"ABR threshold shift, TTS, vs control","[2]; female mice (n=4), 24 h after noise, drug right after noise, FIG. 3B",no significant difference
same,"ABR threshold shift, PTS, vs control","[2]; female mice (n=4), two weeks after noise, drug right after noise, FIG. 3B",no statistical difference
same,"protection from NIHL, TTS","[2]; male mice (n=3), 3 months old, drug in drinking water right after noise, one-way ANOVA p<0.05, FIG. 3A",significant protection
same,"ABR threshold shift, PTS, vs control","[2]; male mice (n=3), two weeks after noise, drug right after noise, P<0.01",significantly less; also recorded: significant protection
same,"less ABR threshold shift than controls, TTS","[2]; male mice, 24 h after noise, drug in drinking water right after noise, across all five frequencies, P<0.05, FIG. 3A",about 10 dB
same,pre-exposure ABR thresholds (Pre-Noise-Only vs Pre-Noise-Drug),"[2]; male or female mice, 3 months old, FIGS. 3A and 3B",no significant difference
same,water solubility,[4],water soluble
